Measured values reported in patent publication US12678488B2, “Batch management method for improving farrowing rate or number of piglets born alive in swine” (priority 2024, dated 2026).

Tested on: Landrace x Large White reserve sows
Assay: Heat detection: estrus rate and estrus time in gilts, different doses (Example 2)
Format: in vivo, pigs
Description: Landrace x Large White reserve sows, about 230 days old, were randomly divided into a batch farrowing with FTAI and batch farrowing with FTAI combined with different doses of 1-[bis(4-cyanophenyl)methyl]-1,2,4-triazole groups, and during the experiment, the experimental sows in each group were fed regularly and gained free access to water according to the requirements of feeding management in the farm.
Referring to the dosage of 1-[bis(4-cyanophenyl)methyl]-1,2,4-triazole in clinical medicine and using standard weight-dosage conversion, the recommended dosage of 1-[bis(4-cyanophenyl)methyl]-1,2,4-triazole for sows was 50-150 μg/kg·BW/day, orally for consecutive 5 days, as derived by conversion. In addition, the applicant previously studied uniparous cows, and in the ovulation induction scheme, the reference dosage of 1-[bis(4-cyanophenyl)methyl]-1,2,4-triazole was 60-200 μg/kg·BW, administered in a single dose; furthermore, by means of conversion in conjunction with the dosage for model animals (mice) previously in the laboratory, various dosages were designed. The treatment methods of hormones and drugs for sows in each group were as follows: • batch farrowing with FTAI: the sows were fed with an altrenogest oral solution at 20 mg/animal at the same time every day, for 18 days; PMSG at 1000 IU/animal was injected intramuscularly 42 h after the last feeding with altrenogest, GnRH at 100 μg/animal was injected intramuscularly 80 h after the injection of PMSG, a first timed insemination was performed 24 h after the injection of GnRH, and a second timed insemination was performed 16 h after the first insemination.
(§1) Treatment group 1: the hormone treatment and mating schemes for gilts were the same as FTAI. The difference lay in that PMSG at 1000 IU/gilt was injected intramuscularly 42 h after the last feeding with altrenogest, and 1-[bis(4-cyanophenyl)methyl]-1,2,4-triazole at 12 μg/kg·BW/day was administered orally 8 h after the injection of PMSG, for 1 day.
as §1, with “2:” for “1:”, “2 days.” for “1 day.”
as §1, with “3:” for “1:”, “20” for “12”
as §1, with “4:” for “1:”, “sows” for “gilts”, “1-[bis (4-cyanophenyl)methyl]-1,2,4-triazole” for “1-[bis(4-cyanophenyl)methyl]-1,2,4-triazole”, “20” for “12”, “2 days.” for “1 day.”
as §1, with “5:” for “1:”, “IU/animal” for “IU/gilt”, “20” for “12”, “3 days.” for “1 day.”
as §1, with “6:” for “1:”, “IU/animal” for “IU/gilt”, “20” for “12”, “5 days.” for “1 day.”
Treatment group 7: the hormone treatment and mating schemes for gilts were the same as FTAI. […]

Q: What does the source list for `N#Cc1ccc(C(c2ccc(C#N)cc2)n2cncn2)cc1` [1-[bis(4-cyanophenyl)methyl]-1,2,4-triazole]?
A: Number of estrous animals at different times after stopping Altrenogest (day/animal) (day 5.5, Example 2 Treatment group 5: 20 μg/kg·BW/day orally, 3 days, gilts): 6 animal; Number of estrous animals at different times after stopping Altrenogest (day/animal) (day 5.5, Example 2 Treatment group 6: 20 μg/kg·BW/day orally, 5 days, gilts): 0 animal; Number of estrous animals at different times after stopping Altrenogest (day/animal) (day 5.5, Example 2 Treatment group 7: 40 μg/kg·BW/day orally, 1 day, gilts): 2 animal; Number of estrous animals at different times after stopping Altrenogest (day/animal) (day 5.5, Example 2 Treatment group 8: 40 μg/kg·BW/day orally, 5 days, gilts): 0 animal; Number of estrous animals at different times after stopping Altrenogest (day/animal) (day 6, Example 2 Treatment group 1: 12 μg/kg·BW/day orally, 1 day, gilts): 8 animal; Number of estrous animals at different times after stopping Altrenogest (day/animal) (day 6, Example 2 Treatment group 2: 12 μg/kg·BW/day orally, 2 days, gilts): 7 animal; Number of estrous animals at different times after stopping Altrenogest (day/animal) (day 6, Example 2 Treatment group 3: 20 μg/kg·BW/day orally, 1 day, gilts): 7 animal; Number of estrous animals at different times after stopping Altrenogest (day/animal) (day 6, Example 2 Treatment group 4: 20 μg/kg·BW/day orally, 2 days, gilts): 6 animal; Number of estrous animals at different times after stopping Altrenogest (day/animal) (day 6, Example 2 Treatment group 5: 20 μg/kg·BW/day orally, 3 days, gilts): 7 animal; Number of estrous animals at different times after stopping Altrenogest (day/animal) (day 6, Example 2 Treatment group 6: 20 μg/kg·BW/day orally, 5 days, gilts): 5 animal; Number of estrous animals at different times after stopping Altrenogest (day/animal) (day 6, Example 2 Treatment group 7: 40 μg/kg·BW/day orally, 1 day, gilts): 2 animal; Number of estrous animals at different times after stopping Altrenogest (day/animal) (day 6, Example 2 Treatment group 8: 40 μg/kg·BW/day orally, 5 days, gilts): 2 animal; Number of estrous animals at different times after stopping Altrenogest (day/animal) (day 6.5, Example 2 Treatment group 1: 12 μg/kg·BW/day orally, 1 day, gilts): 4 animal; Number of estrous animals at different times after stopping Altrenogest (day/animal) (day 6.5, Example 2 Treatment group 2: 12 μg/kg·BW/day orally, 2 days, gilts): 3 animal; Number of estrous animals at different times after stopping Altrenogest (day/animal) (day 6.5, Example 2 Treatment group 3: 20 μg/kg·BW/day orally, 1 day, gilts): 5 animal; Number of estrous animals at different times after stopping Altrenogest (day/animal) (day 6.5, Example 2 Treatment group 4: 20 μg/kg·BW/day orally, 2 days, gilts): 4 animal; Number of estrous animals at different times after stopping Altrenogest (day/animal) (day 6.5, Example 2 Treatment group 5: 20 μg/kg·BW/day orally, 3 days, gilts): 3 animal; Number of estrous animals at different times after stopping Altrenogest (day/animal) (day 6.5, Example 2 Treatment group 6: 20 μg/kg·BW/day orally, 5 days, gilts): 3 animal; Number of estrous animals at different times after stopping Altrenogest (day/animal) (day 6.5, Example 2 Treatment group 7: 40 μg/kg·BW/day orally, 1 day, gilts): 9 animal; Number of estrous animals at different times after stopping Altrenogest (day/animal) (day 6.5, Example 2 Treatment group 8: 40 μg/kg·BW/day orally, 5 days, gilts): 2 animal; Number of estrous animals at different times after stopping Altrenogest (day/animal) (day 7, Example 2 Treatment group 1: 12 μg/kg·BW/day orally, 1 day, gilts): 5 animal; Number of estrous animals at different times after stopping Altrenogest (day/animal) (day 7, Example 2 Treatment group 2: 12 μg/kg·BW/day orally, 2 days, gilts): 3 animal; Number of estrous animals at different times after stopping Altrenogest (day/animal) (day 7, Example 2 Treatment group 3: 20 μg/kg·BW/day orally, 1 day, gilts): 2 animal; Number of estrous animals at different times after stopping Altrenogest (day/animal) (day 7, Example 2 Treatment group 4: 20 μg/kg·BW/day orally, 2 days, gilts): 2 animal; Number of estrous animals at different times after stopping Altrenogest (day/animal) (day 7, Example 2 Treatment group 5: 20 μg/kg·BW/day orally, 3 days, gilts): 3 animal; Number of estrous animals at different times after stopping Altrenogest (day/animal) (day 7, Example 2 Treatment group 6: 20 μg/kg·BW/day orally, 5 days, gilts): 8 animal; Number of estrous animals at different times after stopping Altrenogest (day/animal) (day 7, Example 2 Treatment group 7: 40 μg/kg·BW/day orally, 1 day, gilts): 0 animal; Number of estrous animals at different times after stopping Altrenogest (day/animal) (day 7, Example 2 Treatment group 8: 40 μg/kg·BW/day orally, 5 days, gilts): 0 animal; Number of estrous animals at different times after stopping Altrenogest (day/animal) (day 7.5, Example 2 Treatment group 1: 12 μg/kg·BW/day orally, 1 day, gilts): 1 animal; Number of estrous animals at different times after stopping Altrenogest (day/animal) (day 7.5, Example 2 Treatment group 2: 12 μg/kg·BW/day orally, 2 days, gilts): 1 animal; Number of estrous animals at different times after stopping Altrenogest (day/animal) (day 7.5, Example 2 Treatment group 3: 20 μg/kg·BW/day orally, 1 day, gilts): 1 animal; Number of estrous animals at different times after stopping Altrenogest (day/animal) (day 7.5, Example 2 Treatment group 4: 20 μg/kg·BW/day orally, 2 days, gilts): 1 animal; Number of estrous animals at different times after stopping Altrenogest (day/animal) (day 7.5, Example 2 Treatment group 5: 20 μg/kg·BW/day orally, 3 days, gilts): 2 animal; Number of estrous animals at different times after stopping Altrenogest (day/animal) (day 7.5, Example 2 Treatment group 6: 20 μg/kg·BW/day orally, 5 days, gilts): 1 animal; Number of estrous animals at different times after stopping Altrenogest (day/animal) (day 7.5, Example 2 Treatment group 7: 40 μg/kg·BW/day orally, 1 day, gilts): 9 animal; Number of estrous animals at different times after stopping Altrenogest (day/animal) (day 7.5, Example 2 Treatment group 8: 40 μg/kg·BW/day orally, 5 days, gilts): 0 animal; Number of estrous animals at different times after stopping Altrenogest (day/animal) (day 8, Example 2 Treatment group 1: 12 μg/kg·BW/day orally, 1 day, gilts): 0 animal; Number of estrous animals at different times after stopping Altrenogest (day/animal) (day 8, Example 2 Treatment group 2: 12 μg/kg·BW/day orally, 2 days, gilts): 0 animal; Number of estrous animals at different times after stopping Altrenogest (day/animal) (day 8, Example 2 Treatment group 3: 20 μg/kg·BW/day orally, 1 day, gilts): 0 animal; Number of estrous animals at different times after stopping Altrenogest (day/animal) (day 8, Example 2 Treatment group 4: 20 μg/kg·BW/day orally, 2 days, gilts): 0 animal; Number of estrous animals at different times after stopping Altrenogest (day/animal) (day 8, Example 2 Treatment group 5: 20 μg/kg·BW/day orally, 3 days, gilts): 1 animal; Number of estrous animals at different times after stopping Altrenogest (day/animal) (day 8, Example 2 Treatment group 6: 20 μg/kg·BW/day orally, 5 days, gilts): 2 animal; Number of estrous animals at different times after stopping Altrenogest (day/animal) (day 8, Example 2 Treatment group 7: 40 μg/kg·BW/day orally, 1 day, gilts): 0 animal; Number of estrous animals at different times after stopping Altrenogest (day/animal) (day 8, Example 2 Treatment group 8: 40 μg/kg·BW/day orally, 5 days, gilts): 0 animal; estrus on the 8th day after altrenogest was stopped (gilts, 80 and 160 μg/kg·BW/day for 5 consecutive days (treatment groups 9 and 10)): no estrus; estrus rate (gilts, high dose or multiple (5) low doses (treatment groups 6, 8, 9, and 10)): decreased estrus rate or even no estrus; estrus rate (gilts, low dose (treatment groups 1, 2, 3, 4, 5, and 7), compared with FTAI group): not significantly different; estrus in sows (high-dose): inhibited; gilt estrus rate (low-dose, batch farrowing with FTAI): no significant change
